Measured values published in ChEMBL document CHEMBL1201862, “PubChem BioAssay data set” (2004).
Active and inactive are the calls of the source.

Assays:
[1] = target: Glucose-6-phosphate 1-dehydrogenase (Homo sapiens, UniProt P11413); assay: human G6PD enzyme inhibitors, dose response, selectivity assay for P. falciparum G6PD inhibitor project, biochemical, fluorescence (AID 504792); type: functional
Phosphomannomutase 2 = target: T1, Phosphomannomutase 2 (Homo sapiens, UniProt O15305); assay: Counter screen SAR assay for PMM2 inhibitors via a fluorescence intensity assay. [Related pubchem assays (depositor defined):AID1545, AID1574]
T1 sequence (O15305 whole entry): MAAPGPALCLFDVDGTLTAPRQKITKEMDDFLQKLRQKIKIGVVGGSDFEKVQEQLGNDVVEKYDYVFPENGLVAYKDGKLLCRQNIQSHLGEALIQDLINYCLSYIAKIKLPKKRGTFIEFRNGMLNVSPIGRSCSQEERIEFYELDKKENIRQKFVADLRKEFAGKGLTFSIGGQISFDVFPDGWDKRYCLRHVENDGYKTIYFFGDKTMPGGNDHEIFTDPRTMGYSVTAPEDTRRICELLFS

[2] = target: Phosphoethanolamine/phosphocholine phosphatase (Homo sapiens, UniProt Q8TCT1); assay: SAR assay for compounds that inhibit PHOSPHO1. [Related pubchem assays (depositor defined):AID1545, AID1565, AID1574]
Chain of Phosphoethanolamine/phosphocholine phosphatase (Q8TCT1 whole entry): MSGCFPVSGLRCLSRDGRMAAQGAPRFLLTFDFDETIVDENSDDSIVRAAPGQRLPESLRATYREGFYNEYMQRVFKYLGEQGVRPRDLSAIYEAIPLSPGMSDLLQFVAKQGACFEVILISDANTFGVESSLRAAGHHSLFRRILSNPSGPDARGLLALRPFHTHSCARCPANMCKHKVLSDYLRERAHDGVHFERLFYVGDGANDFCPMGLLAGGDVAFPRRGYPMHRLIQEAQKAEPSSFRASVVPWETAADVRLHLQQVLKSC

Large T antigen = Large T antigen (Simian virus 40, UniProt P03070); type: functional, Betapolyomavirus macacae;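 further: Confirmatory-stage PubChem screen for compounds that inhibit SV40 T antigen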
Chain of Large T antigen (P03070 whole entry, the tested form may be a part): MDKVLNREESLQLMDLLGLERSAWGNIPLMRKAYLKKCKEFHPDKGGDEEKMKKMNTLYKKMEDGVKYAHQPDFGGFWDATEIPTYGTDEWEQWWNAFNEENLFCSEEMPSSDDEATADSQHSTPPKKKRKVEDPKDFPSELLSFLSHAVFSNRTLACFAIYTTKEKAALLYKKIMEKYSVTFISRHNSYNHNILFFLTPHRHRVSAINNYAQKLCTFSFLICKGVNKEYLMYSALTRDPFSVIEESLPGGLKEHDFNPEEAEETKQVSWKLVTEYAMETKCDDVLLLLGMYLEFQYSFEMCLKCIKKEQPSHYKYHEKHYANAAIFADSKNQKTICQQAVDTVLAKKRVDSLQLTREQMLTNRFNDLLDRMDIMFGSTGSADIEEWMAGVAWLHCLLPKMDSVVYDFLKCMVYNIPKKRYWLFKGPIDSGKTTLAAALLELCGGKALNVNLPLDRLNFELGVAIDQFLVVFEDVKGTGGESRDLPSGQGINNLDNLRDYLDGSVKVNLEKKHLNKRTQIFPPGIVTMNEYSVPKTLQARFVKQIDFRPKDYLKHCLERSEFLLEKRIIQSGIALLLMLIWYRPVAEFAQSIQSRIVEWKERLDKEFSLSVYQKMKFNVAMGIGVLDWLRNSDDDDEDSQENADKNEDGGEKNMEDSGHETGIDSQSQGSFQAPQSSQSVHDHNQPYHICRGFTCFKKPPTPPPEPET

[3] = target: T2, Carboxy-terminal domain RNA polymerase II polypeptide A small phosphatase 1 (Homo sapiens, UniProt Q9GZU7); assay: inhibitors of CTDSP1, concentration-response testing, biochemical assay, absorbance-based, actives from ultra-high-throughput screening (AID 540297); type: functional
T2 sequence (Q9GZU7 whole entry): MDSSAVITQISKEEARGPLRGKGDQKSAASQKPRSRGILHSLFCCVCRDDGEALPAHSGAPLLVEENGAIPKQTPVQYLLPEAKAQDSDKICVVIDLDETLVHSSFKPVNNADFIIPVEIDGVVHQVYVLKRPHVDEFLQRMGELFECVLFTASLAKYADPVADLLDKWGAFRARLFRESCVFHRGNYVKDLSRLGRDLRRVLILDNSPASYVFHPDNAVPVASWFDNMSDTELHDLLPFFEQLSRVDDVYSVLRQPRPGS

[4] = target: Eukaryotic translation initiation factor 4E (Mus musculus, UniProt P63073); assay: eIF4E–eIF4G protein interaction inhibitors, dose response, biochemical, TR-FRET (AID 855); type: functional;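 further: potency for disrupting eIF4E binding to eIF4GI seen as loss of FRET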
Chain of Eukaryotic translation initiation factor 4E (P63073 whole entry): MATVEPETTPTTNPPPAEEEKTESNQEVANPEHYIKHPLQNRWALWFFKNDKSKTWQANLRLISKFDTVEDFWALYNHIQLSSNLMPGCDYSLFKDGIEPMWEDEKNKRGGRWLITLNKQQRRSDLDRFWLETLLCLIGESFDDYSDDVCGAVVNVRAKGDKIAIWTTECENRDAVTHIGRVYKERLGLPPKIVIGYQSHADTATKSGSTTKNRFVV

[5] = target: T3, Mannose-6-phosphate isomerase (Homo sapiens, UniProt P34949); assay: PMI enzyme inhibitors, confirmation, biochemical, fluorescence intensity (AID 1535)
T3 sequence (P34949 whole entry): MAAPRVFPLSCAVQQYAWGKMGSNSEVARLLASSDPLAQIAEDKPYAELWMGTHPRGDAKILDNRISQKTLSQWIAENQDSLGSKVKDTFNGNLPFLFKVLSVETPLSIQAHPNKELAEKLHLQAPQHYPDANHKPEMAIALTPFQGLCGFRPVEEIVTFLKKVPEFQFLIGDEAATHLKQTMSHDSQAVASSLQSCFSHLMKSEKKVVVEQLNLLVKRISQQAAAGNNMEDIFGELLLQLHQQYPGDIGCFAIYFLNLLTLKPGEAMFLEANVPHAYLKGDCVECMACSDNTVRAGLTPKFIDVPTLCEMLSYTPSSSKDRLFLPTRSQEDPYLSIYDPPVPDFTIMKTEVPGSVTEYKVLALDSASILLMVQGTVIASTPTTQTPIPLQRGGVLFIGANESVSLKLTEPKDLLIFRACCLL

Mucolipin-3 = Mucolipin-3 (Homo sapiens, UniProt Q8TDD5); assay: Fluorescence counterscreen assay for […] agonists: dose response cell-based high-throughput screening assay to identify agonists of the transient receptor potential channel ML3 (TRPML3). [Related pubchem assays: 1424, 1448 ]; type: functional
Chain of Mucolipin-3 (Q8TDD5 whole entry): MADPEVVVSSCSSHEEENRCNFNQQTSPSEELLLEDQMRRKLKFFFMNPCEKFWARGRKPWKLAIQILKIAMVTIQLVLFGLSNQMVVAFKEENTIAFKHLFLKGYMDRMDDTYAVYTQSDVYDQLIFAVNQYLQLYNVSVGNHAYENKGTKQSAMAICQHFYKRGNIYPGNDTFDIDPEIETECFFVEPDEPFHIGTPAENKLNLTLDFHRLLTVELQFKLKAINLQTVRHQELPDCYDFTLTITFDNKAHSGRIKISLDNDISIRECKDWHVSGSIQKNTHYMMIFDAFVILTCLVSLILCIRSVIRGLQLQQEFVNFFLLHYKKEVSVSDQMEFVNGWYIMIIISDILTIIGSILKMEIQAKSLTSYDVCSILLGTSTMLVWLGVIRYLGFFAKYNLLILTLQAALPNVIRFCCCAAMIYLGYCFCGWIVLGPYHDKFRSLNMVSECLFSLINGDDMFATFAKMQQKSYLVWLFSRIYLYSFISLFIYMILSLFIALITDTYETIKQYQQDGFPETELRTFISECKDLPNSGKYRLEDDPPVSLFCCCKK

Ion channel NompC = Ion channel NompC (Danio rerio, UniProt Q7T1G6); assay: Dose response cell-based high-throughput screening assay for agonists of the transient receptor potential channel N1 (TRPN1). [Related pubchem assays (depositor defined):AID1424, AID1448]; type: functional
Chain of Ion channel NompC (Q7T1G6 whole entry): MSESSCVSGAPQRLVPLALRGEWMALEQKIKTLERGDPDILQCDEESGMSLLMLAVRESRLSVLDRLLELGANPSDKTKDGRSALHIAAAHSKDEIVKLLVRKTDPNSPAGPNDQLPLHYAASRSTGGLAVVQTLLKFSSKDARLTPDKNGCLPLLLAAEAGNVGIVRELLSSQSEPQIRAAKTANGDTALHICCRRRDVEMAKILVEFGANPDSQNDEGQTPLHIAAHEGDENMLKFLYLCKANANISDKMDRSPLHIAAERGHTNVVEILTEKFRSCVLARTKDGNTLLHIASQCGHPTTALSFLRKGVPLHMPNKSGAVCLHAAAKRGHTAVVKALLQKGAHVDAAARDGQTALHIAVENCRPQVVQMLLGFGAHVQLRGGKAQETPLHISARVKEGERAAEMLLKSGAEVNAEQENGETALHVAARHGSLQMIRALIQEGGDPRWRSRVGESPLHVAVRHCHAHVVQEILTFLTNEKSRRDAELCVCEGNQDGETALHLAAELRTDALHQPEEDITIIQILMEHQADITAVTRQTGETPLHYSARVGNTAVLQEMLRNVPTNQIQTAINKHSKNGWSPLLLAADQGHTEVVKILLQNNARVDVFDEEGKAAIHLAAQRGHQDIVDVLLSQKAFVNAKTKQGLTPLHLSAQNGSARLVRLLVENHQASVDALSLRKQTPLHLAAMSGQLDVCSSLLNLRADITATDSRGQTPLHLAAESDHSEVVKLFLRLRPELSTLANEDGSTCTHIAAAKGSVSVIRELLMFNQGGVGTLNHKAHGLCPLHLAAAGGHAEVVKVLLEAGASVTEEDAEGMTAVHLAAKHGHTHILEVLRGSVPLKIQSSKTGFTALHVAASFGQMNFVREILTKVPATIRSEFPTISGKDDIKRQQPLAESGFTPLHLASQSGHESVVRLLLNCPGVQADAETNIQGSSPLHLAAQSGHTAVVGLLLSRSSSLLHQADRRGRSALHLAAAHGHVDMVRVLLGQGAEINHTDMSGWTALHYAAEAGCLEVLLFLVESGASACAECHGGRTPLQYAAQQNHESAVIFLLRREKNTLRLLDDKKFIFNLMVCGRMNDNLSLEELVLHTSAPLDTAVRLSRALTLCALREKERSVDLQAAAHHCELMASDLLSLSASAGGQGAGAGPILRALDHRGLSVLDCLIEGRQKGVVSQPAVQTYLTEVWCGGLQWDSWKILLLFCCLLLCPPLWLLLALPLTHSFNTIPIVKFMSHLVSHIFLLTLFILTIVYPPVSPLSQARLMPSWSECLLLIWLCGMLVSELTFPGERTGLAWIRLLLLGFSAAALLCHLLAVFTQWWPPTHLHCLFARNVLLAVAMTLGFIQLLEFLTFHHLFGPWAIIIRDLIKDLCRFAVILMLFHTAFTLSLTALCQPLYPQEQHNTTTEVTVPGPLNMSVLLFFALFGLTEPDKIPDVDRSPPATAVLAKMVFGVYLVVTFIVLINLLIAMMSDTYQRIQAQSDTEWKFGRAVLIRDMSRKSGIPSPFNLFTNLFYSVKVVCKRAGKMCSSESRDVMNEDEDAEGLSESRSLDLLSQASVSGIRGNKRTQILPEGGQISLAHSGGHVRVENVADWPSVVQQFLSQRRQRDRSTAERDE

[6] = target: DNA dC->dU-editing enzyme APOBEC-3G (Homo sapiens, UniProt Q9HC16); assay: Dose Response confirmation of small molecule APOBEC3G DNA Deaminase Inhibitors via a fluorescence-based single-stranded DNA deaminase assay. [Related pubchem assays (depositor defined):AID493012, AID493028]; type: functional
[7] = target: DNA dC->dU-editing enzyme APOBEC-3A (Homo sapiens, UniProt P31941); assay: APOBEC3A DNA deaminase inhibitors, dose response, biochemical (AID 504722); type: functional
Chain of DNA dC->dU-editing enzyme APOBEC-3A (P31941 whole entry): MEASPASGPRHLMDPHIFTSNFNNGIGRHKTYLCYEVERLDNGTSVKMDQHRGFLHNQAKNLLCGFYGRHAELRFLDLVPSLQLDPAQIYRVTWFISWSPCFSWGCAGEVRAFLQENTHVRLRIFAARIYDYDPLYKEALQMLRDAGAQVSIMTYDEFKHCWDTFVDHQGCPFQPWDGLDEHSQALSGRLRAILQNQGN

[8] = inhibitors of intracellular T. cruzi replication, confirmation, NIH3T3 host cells, beta-gal luminescence (AID 2044); type: functional, cell-based;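 further: intracellular parasites grown in NIH/3T3 mouse fibroblasts as host cells; luminescent beta-galactosidase reporter signal from transgenic T. cruzi replicating inside host cells; inhibitors lower the luminescence signal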
[9] = target: T4, Alkaline phosphatase, tissue-nonspecific isozyme (Homo sapiens, UniProt P05186); assay: TNAP enzyme inhibition by screening hits, dose response, selectivity assay for mouse IAP inhibitor project, biochemical, human TNAP, uHTS hits (AID 488906); type: functional
T4 sequence (P05186 whole entry): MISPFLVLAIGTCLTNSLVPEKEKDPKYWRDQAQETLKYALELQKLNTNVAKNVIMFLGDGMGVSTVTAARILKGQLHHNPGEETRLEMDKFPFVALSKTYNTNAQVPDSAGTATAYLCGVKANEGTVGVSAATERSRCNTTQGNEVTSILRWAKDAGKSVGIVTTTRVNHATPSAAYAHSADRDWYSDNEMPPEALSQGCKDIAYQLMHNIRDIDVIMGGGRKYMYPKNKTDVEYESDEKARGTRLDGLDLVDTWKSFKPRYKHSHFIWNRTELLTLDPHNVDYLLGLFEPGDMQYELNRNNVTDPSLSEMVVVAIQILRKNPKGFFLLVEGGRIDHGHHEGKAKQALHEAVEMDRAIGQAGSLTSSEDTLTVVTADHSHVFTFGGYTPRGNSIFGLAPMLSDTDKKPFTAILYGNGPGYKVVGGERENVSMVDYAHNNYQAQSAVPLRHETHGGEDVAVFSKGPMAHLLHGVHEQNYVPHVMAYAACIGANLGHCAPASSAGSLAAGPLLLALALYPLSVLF

[10] = cytotoxicity toward NIH3T3 fibroblasts, dose response, counter-screen, cell-based, ATP luminescence, mouse fibroblasts (AID 2010); type: functional;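 further: cells exposed to compound for about 90 hours before reading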
[11] = target: T4, Alkaline phosphatase, tissue-nonspecific isozyme
[12] = target: Intestinal-type alkaline phosphatase (Mus musculus, UniProt P24822); assay: PubChem AID 488785; type: functional
[13] = target: Intestinal-type alkaline phosphatase (Homo sapiens, UniProt P09923); assay: activation of human intestinal alkaline phosphatase – biochemical, dose response (AID 488873); type: functional
Chain of Intestinal-type alkaline phosphatase (Homo sapiens, UniProt P09923) (P09923 whole entry): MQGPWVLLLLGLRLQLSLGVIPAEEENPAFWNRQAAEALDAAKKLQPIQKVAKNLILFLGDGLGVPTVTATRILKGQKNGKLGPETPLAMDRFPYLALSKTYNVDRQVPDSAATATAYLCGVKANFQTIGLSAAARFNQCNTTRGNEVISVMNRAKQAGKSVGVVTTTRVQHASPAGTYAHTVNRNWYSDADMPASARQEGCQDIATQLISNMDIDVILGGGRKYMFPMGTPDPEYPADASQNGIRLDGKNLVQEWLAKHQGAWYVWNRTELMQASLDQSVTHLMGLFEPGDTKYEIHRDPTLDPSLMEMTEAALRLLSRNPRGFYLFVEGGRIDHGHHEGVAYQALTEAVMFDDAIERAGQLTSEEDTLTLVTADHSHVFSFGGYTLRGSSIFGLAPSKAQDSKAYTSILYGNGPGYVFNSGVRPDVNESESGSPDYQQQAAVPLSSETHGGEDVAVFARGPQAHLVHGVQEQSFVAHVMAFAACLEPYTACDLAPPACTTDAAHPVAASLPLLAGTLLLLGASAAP

[14] = target: G-protein coupled receptor 55 (Homo sapiens, UniProt Q9Y2T6); assay: GPR55 antagonists blocking LPI-driven arrestin recruitment, primary screen, imaging, U2OS, beta-arrestin-GFP, LPI agonist (AID 2013); type: functional;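 further: antagonist potency measured as reduced agonist-driven arrestin aggregation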
Chain of G-protein coupled receptor 55 (Q9Y2T6 whole entry): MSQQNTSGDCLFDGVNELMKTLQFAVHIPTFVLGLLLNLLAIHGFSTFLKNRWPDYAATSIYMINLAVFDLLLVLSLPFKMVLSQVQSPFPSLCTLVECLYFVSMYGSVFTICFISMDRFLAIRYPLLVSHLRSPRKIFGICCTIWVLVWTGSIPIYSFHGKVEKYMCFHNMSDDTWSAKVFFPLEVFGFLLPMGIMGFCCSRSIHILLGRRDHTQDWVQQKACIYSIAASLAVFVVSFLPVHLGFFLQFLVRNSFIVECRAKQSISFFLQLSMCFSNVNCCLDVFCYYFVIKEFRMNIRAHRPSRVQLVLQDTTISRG

Chain of Glucose-6-phosphate 1-dehydrogenase (P11413 whole entry): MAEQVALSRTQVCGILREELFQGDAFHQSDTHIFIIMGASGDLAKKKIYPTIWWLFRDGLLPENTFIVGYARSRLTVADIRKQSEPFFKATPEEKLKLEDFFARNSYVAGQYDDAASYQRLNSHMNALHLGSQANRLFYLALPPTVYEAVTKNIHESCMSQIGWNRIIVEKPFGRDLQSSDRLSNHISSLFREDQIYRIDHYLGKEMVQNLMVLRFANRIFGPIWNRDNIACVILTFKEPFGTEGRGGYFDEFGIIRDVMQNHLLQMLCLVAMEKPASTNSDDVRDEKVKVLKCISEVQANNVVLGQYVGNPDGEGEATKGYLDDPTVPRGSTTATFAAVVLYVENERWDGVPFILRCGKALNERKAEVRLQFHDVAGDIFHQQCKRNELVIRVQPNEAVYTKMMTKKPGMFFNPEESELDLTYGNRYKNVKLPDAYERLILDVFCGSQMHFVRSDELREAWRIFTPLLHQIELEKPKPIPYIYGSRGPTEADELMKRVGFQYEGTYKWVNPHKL

Question: With O=c1c2ccccc2sn1-c1cc(S(=O)(=O)N2CCOCC2)ccc1N1CCCC1 as the compound, how does the IC50 [1] read?
Answer: 14.3 µM (active)

Question: And the IC50 (Phosphomannomutase 2)?
Answer: 29.8 µM (active)

Question: What about the IC50 [2] of the same compound?
Answer: 10.7 µM (inactive)

Question: And the IC50 (Large T antigen)?
Answer: 11.7 µM (active)

Question: What about the IC50 [3] of the same compound?
Answer: 11 µM (active)

Question: What about the IC50 [4] of the same compound?
Answer: 34.5 µM (inactive)

Question: What about the IC50 [5] of the same compound?
Answer: 7.51 µM (active)

Question: With CCOc1ccc(N(CC(=O)O)S(=O)(=O)c2ccc(F)cc2)cc1 as the compound, how does the EC50 (Mucolipin-3) read?
Answer: > 29.9 µM (not active)

Question: And the EC50 (Ion channel NompC)?
Answer: > 29.9 µM (inactive)

Question: For COc1ccc(OCc2nnc(S)n2Cc2ccco2)cc1, which IC50 [6] is on record?
Answer: 3.88 µM (active)

Question: And the IC50 [7]?
Answer: > 100 µM (inactive)

Question: What does the source list for CCOC(=O)c1ccc(N2CCN(c3ccccc3F)CC2)c(NC(=O)Nc2cccc(OC)c2)c1?
Answer: EC50 [8]: 1.39 µM (active); IC50 [9]: > 100 µM (inactive); EC50 [10]: > 60 µM (inconclusive); EC50 [11]: > 100 µM (not active); IC50 [12]: 6.54 µM (active); EC50 [13]: > 100 µM (inactive)

Question: For CC(=O)Oc1ccc2ccccc2c1C(NC(=O)Cc1ccccc1)c1ccccc1 (stereo not drawn), which IC50 [14] is on record?
Answer: 1.27 µM (active)
